Laboratory results from PMC6099102, “Effect of the Nature of Donor Atoms on the Thermodynamic, Kinetic and Relaxation Properties of Mn(II) Complexes Formed With Some Trisubstituted 12-Membered Macrocyclic Ligands” (Frontiers in Chemistry, 2018).

Experiments:
[1] = Stability and protonation constants and pMn of the Mn(II) complexes (pH-potentiometry and/or 1H relaxometry); assay type: physicochemical; conditions: I = 0.15 M NaCl, 25 °C; for pMn: calculated at pH = 7.4, cM = cL = 10^−5 M; for log KMLH: protonation constant of the Mn(II) complex
Experimental: The concentration of the ligand solutions was determined by pH-potentiometric titration in the presence and absence of an excess (5–10 fold) of MnCl2. For determining the protonation constants of the investigated ligands, pH-potentiometric titrations were made by means of 0.2 M standardized NaOH in 2 and 3 mM ligand solutions in the pH-range of 1.75–11.85. All equilibrium measurements were performed at a constant 0.15 M NaCl ionic strength at 25 °C. The protonation and the stability constants of the Mn(II) complexes were determined by pH-potentiometric titrations (DOTP, DO3A, PCTA, ODO3A, DO3P) while owing to the slow formation rates of Mn(II) complexes formed with amide type ligands, the stability constants of DOTAM, DOTMA, DO3AM^H, PC3AM^H, PC3AM^Gly, PC3AM^Pip complexes were determined by out-of-cell pH-potentiomertry in combination with ^1H relaxometry. The metal-to-ligand concentration ratio in the solutions was 1:1. For the calculation of protonation constants of the ligands and the log KMnL and log KMnLHi values of the complexes, mL–pH data pairs (50–180), obtained in the pH range of 1.75–11.85 or r1obs-pH data pairs (10–15 batch samples) obtained in the pH range of 2–4.5 were used (the samples were equilibrated for 4–7 days). The equilibrium constants characterizing the deprotonation that occurs at basic pH were determined from the data obtained via direct pH-potentiometric titrations performed on the pre-formed complexes.
The pH-potentiometric titrations were carried out with a Methrohm 888 Titrando titration workstation using a Metrohm-6.0233.100 combined electrode. The samples (6.00 mL) were thermostated at 25 °C. The samples were stirred and kept under inert gas (N2) to avoid the effect of CO2. KH-phthalate (pH = 4.005) and borax (pH = 9.177) buffers were used for the pH-calibration. The method proposed by Irving et al. was used for the calculation of H^+ concentrations from the measured pH values (Irving et al., [1967]). A 0.01 M HCl (I = 0.15 M set with NaCl) solution was titrated with standardized NaOH solution of known concentration (approx. 0.2 M). The correction factor obtained as difference of calculated pH and measured pH values was used to calculate the [H^+] in the samples. The ionic product of water was determined from the same titrations (HCl/NaOH) from the data collected in the pH range of 11.20–11.85.
The relaxometric data were collected using a Bruker Minispec MQ20 NMR relaxometer. […] A datapoint plotted on figures represents an average of 5–6 T1 measurements (Figures S3–S9 in Supplementary Material). The data were fitted by using the molar r1p relaxivity value of the MnCl2 ([…] at 0.49 T and 25 °C). The equilibrium constants were calculated using the PSEQUAD program (Zékány and Nagypál, [1985]).
In order to gain information on the thermodynamic stability of the Mn(II) complexes, samples containing the metal and ligand in 1 to 1 molar ratio were studied by pH potentiometry or ^1H-relaxometry and in some cases by a combination of the two methods. The titration data were fitted by assuming the existence of [M(L)] and some protonated species ([M(HiL)]) at lower pH values. In some cases to fit the data obtained at higher pH, the formation of ternary hydroxido complexes ([M(L)(OH)]) were also included in the equilibrium model. The stability constants (KML) and the various protonation forms (KMHiL) of ML metal chelates are defined by Equations (3)–(5). However, a comparison of the stabilities of different complexes solely on the basic of their stability constants might be misleading because of the differences in ligand basicities. […] The pMn value accounts for the effect of proton competition (ligand basicity and complex protonation) on the stability constant essentially offering the same information as the conditional stability constant. Higher pMn values indicate a higher chelate stability at specified conditions. […]

[2] = ref Rolla et al. ([2013]); cited from earlier work
[3] = stability constant of the Mn(II) complex
[4] = stability constant of the Mn(II) complex by 1H-relaxometry

O=C(O)CN1CCNCCN(CC(=O)O)CCN(CC(=O)O)CC1 [DO3A]
pMn [1]: 8.66 | log KMLH [1]: 4.26 (2) | log KML [1, 3]: 16.55 (4) | r1p [2]: 1.30 mM⁻¹ s⁻¹

O=P(O)(O)CN1CCNCCN(CP(=O)(O)O)CCN(CP(=O)(O)O)CC1 [DO3P]
pMn [1]: 6.43 | log KMLH [1]: 8.06 (2) | log KMHLH ([1]; second protonation constant of the Mn(II) complex): 7.05 (1) | log KML [1, 3]: 17.45 (2) | log KMH2LH ([1]; third protonation constant of the Mn(II) complex): 5.31 (2)

NC(=O)CN1CCN(CC(N)=O)Cc2cccc(n2)CN(CC(N)=O)CC1 [PC3AM^H]
pMn [1]: 7.77 | log KML [1, 4]: 11.78 (8) | log KML [1, 3]: 11.94(3) | log KMLOH ([1]; ternary hydroxido complex of Mn(II)): 10.90 (4)

O=C(O)CN1CCN(CC(=O)O)Cc2cccc(n2)CN(CC(=O)O)CC1 [PCTA]
pMn [1]: 9.74 | log KMLH [1]: 1.96(1) | log KML [1, 4]: 16.64 (7) | log KML [1, 3]: 16.83 (1)

O=C(CN1CCN(CC(=O)N2CCCCC2)Cc2cccc(n2)CN(CC(=O)N2CCCCC2)CC1)N1CCCCC1.[Mn+2] [[Mn(PC3AM^Pip)]^2+]
pMn [1]: 8.86
